Test results taken from patent US20140315936A1, “AP[…] PI COMBINATION THERAPY” (AVEXA LIMITED, priority 2011, published 2014).
Like-named read-outs stand apart in the source and are kept apart here.

Test system: HIV-1
Settings: as part of an optimized regimen, plasma HIV-1 RNA
Protocol: Groups of HIV-1 positive patients were treated (as part of an optimized regimen) with ATC+either LPV or ATV, and compared to patients treated with 3TC+either LPV or ATV. Samples were taken after therapy to determine the number of patients who achieved an undetectable plasma HIV-1 RNA level (<50 copies/mL).

Compound | Patients achieving <50 copies/mL, % (combined with 150 mg BID 3TC) [%] | Patients achieving <50 copies/mL, n/N (combined with 150 mg BID 3TC) | Patients achieving <50 copies/mL, % (combined with 800 mg BID ATC) [%] | Patients achieving <50 copies/mL, n/N (combined with 800 mg BID ATC)
COC(=O)N[C@H](C(=O)N[C@@H](Cc1ccccc1)[C@@H](O)CN(Cc1ccc(-c2ccccn2)cc1)NC(=O)[C@@H](NC(=O)OC)C(C)(C)C)C(C)(C)C [ATV, methyl N-[(1S)-1-{[(2S,3S)-3-hydroxy-4-[(2S)-2-[(methoxycarbonyl)amino]-3,3-dimethyl-N′-{[4-(pyridin-2-yl)phenyl]methyl}butanehydrazido]-1-phenylbutan-2-yl]carbamoyl}-2,2-dimethylpropyl]carbamate] | 42.9 | 6/14 | 66.7 | 8/12
Cc1cccc(C)c1OCC(=O)N[C@@H](Cc1ccccc1)[C@@H](O)C[C@H](Cc1ccccc1)NC(=O)[C@H](C(C)C)N1CCCNC1=O [LPV, Lopinavir] | 62 | 18/29 | 60 | 18/30
